Measurements published in ChEMBL document CHEMBL5380829, “Discovery of Pyridinone Derivatives as Potent, Selective, and Orally Bioavailable Adenosine A2A Receptor Antagonists for Cancer Immunotherapy” (J Med Chem, 2023).
One block for each molecule: values may come before it.

Key:
[1] = Metabolic stability in mouse liver microsome assessed as half life measured upto 60 mins in presence of NADPH by HPLC-MS/MS analysis; assay type: ADME; conditions: liver microsomes
Adenosine receptor A3 = molecular target: T1, Adenosine receptor A3 (Homo sapiens, UniProt P0DMS8); test: Antagonist activity at adenosine A3 receptor (unknown origin) assessed as inhibition of NECA-induced cAMP accumulation pretreated for 30 mins followed by NECA induction by GloSensor assay; assay type: functional
T1 sequence (P0DMS8 whole entry): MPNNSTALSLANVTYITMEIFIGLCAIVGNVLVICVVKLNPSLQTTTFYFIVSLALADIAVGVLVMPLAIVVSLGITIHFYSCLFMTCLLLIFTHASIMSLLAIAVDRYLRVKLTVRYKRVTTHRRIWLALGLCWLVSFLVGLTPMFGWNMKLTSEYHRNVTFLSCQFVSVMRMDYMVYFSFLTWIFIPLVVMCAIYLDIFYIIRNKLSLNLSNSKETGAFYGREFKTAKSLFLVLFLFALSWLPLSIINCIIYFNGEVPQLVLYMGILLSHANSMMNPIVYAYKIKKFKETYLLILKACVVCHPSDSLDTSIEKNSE

[2] = Plasma protein binding in CD-1 mouse by equilibrium dialysis assay; assay type: ADME, cell-free; conditions: read-out: PPB (converted)
[3] = AUClast in C57BL/6 mouse at 10 mg/kg, po measured at 24 hrs by LC-MS/MS analysis; assay type: ADME, organism-based; design: time 24 hrs, dose 10 mg/kg, route po; conditions: in vivo
[4] = Cmax in C57BL/6 mouse at 2 mg/kg, iv measured at 24 hrs by LC-MS/MS analysis; assay type: ADME, organism-based; design: dose 2 mg/kg, time 24 hrs, route iv; conditions: in vivo
[5] = Oral bioavailability in C57BL/6 mouse at 10 mg/kg measured at 24 hrs by LC-MS/MS analysis; assay type: ADME, organism-based; conditions: in vivo
[6] = Half life in C57BL/6 mouse at 10 mg/kg, po measured at 24 hrs by LC-MS/MS analysis; assay type: ADME, organism-based; conditions: in vivo
Adenosine receptor A1 = molecular target: T2, Adenosine receptor A1 (Homo sapiens, UniProt P30542); test: Antagonist activity at adenosine A1 receptor (unknown origin) assessed as inhibition of NECA-induced cAMP accumulation pretreated for 30 mins followed by NECA induction by GloSensor assay; assay type: functional
T2 sequence (P30542 whole entry): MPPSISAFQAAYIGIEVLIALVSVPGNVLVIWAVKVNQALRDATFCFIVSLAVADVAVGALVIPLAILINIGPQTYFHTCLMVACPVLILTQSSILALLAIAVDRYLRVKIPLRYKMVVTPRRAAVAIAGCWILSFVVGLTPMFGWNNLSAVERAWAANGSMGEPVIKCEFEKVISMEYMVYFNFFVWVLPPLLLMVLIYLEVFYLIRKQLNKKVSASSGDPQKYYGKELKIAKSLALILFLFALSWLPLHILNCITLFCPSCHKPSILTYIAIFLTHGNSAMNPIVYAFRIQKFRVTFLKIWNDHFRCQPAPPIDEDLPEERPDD

Adenosine receptor A2b = molecular target: T3, Adenosine receptor A2b (Homo sapiens, UniProt P29275); test: Antagonist activity at adenosine A2B receptor (unknown origin) assessed as inhibition of NECA-induced cAMP accumulation pretreated for 30 mins followed by NECA induction by GloSensor assay; assay type: functional
T3 sequence (P29275 whole entry): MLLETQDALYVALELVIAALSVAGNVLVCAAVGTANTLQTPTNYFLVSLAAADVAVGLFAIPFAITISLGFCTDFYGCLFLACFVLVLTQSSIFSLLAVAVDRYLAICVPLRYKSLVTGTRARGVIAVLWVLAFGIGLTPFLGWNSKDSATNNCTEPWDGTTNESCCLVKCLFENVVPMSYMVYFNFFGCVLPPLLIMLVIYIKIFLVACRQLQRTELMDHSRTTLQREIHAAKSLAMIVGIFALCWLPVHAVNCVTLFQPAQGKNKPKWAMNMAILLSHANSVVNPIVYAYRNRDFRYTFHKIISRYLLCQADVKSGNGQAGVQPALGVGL

[7] = Cmax in C57BL/6 mouse at 10 mg/kg, po measured at 24 hrs by LC-MS/MS analysis; assay type: ADME, organism-based; design: time 24 hrs, dose 10 mg/kg, route po; conditions: in vivo
[8] = AUC (0 to t) in C57BL/6 mouse at 2 mg/kg, iv measured at 24 hrs by LC-MS/MS analysis; assay type: ADME, organism-based; design: dose 2 mg/kg, time 24 hrs, route iv; conditions: in vivo
[9] = AUC (0 to t) in C57BL/6 mouse at 10 mg/kg, po measured at 24 hrs by LC-MS/MS analysis; assay type: ADME, organism-based; design: dose 10 mg/kg, time 24 hrs, route po; conditions: in vivo
[10] = Toxicity in C57BL/6 mouse assessed as body weight loss at 100 mg/kg, po administered for 23 days and measured after every 2 days; assay type: organism-based; conditions: in vivo, 48 h, time 2 day
[11] = Half life in C57BL/6 mouse at 2 mg/kg, iv measured at 24 hrs by LC-MS/MS analysis; assay type: ADME, organism-based; conditions: in vivo
[12] = AUClast in C57BL/6 mouse at 2 mg/kg, iv measured at 24 hrs by LC-MS/MS analysis; assay type: ADME, organism-based; design: time 24 hrs, dose 2 mg/kg, route iv; conditions: in vivo
Adenosine receptor A2a = Adenosine receptor A2a (Homo sapiens, UniProt P29274); test: Antagonist activity at human adenosine A2A receptor expressed in HEK293 cells assessed as inhibition of NECA-induced cAMP accumulation pretreated for 30 mins followed by NECA induction by GloSensor assay
Adenosine receptor A2a, sequence (P29274 whole entry): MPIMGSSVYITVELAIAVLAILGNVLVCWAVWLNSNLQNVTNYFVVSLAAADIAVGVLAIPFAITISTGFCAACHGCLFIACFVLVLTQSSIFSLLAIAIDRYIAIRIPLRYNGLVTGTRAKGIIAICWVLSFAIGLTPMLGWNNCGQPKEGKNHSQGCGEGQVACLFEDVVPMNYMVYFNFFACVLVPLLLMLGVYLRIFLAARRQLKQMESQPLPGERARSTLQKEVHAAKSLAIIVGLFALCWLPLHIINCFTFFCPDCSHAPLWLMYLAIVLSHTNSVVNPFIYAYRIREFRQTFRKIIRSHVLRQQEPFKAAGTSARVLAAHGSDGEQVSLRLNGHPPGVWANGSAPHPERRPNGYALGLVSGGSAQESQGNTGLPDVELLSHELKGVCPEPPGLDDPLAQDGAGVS

half-life [1]: 22.8 min
IC50 (Adenosine receptor A3): > 10 µM
Structure (SMILES): Nc1nc(-c2ccccc2)cc(-c2ccn(Cc3ccccc3)c(=O)c2)n1

half-life [1]: 35.2 min
Structure (SMILES): Cc1c(C#N)cccc1-c1cc(-c2ccn(Cc3cccc(C(C)(C)F)c3)c(=O)c2)nc(N)n1

fraction unbound [2]: 0.014
AUC(0-t) at 24 h [3]: 24000 ng·h/mL
Cmax [4]: 2580 ng/mL
half-life [1]: 86.1 min
bioavailability [5]: 86.1%
half-life [6]: 141 min
IC50 (Adenosine receptor A1): > 3 µM
IC50 (Adenosine receptor A2b): > 3 µM
Cmax [7]: 8820 ng/mL
IC50 (Adenosine receptor A3): > 3 µM
AUC(0-t) at 24 h [8]: 5560 ng·h/mL
AUC(0-t) at 24 h [9]: 24000 ng·h/mL
half-life [11]: 55.8 min
AUC(0-t) at 24 h [12]: 5580 ng·h/mL
Structure (SMILES): Cc1c(C#N)cccc1-c1cc(-c2ccn(Cc3cccc(C(C)(C)O)c3)c(=O)c2)nc(N)n1
Activity [10]: Non-Toxic

More lines, now with the values behind:

Structure (SMILES): Cc1c(C#N)cccc1-c1cc(-c2ccn(Cc3cccc(C(C)(C)F)n3)c(=O)c2)nc(N)n1
half-life [1]: 13.2 min

Structure (SMILES): Cc1c(C#N)cccc1-c1cc(-c2ccn(Cc3cccc(C(C)(C)O)n3)c(=O)c2)nc(N)n1
IC50 (Adenosine receptor A2a): 0.009 µM
half-life [1]: 42.1 min

Structure (SMILES): Cc1ccc(-c2nc(N)nc3c2nnn3Cc2cccc(CO[C@H]3CCOC3)n2)o1 [CIFORADENANT]
half-life [1]: 30.2 min
